Assay results reported in patent US20230126893A1, “[(1,4,5-TRISUBSTITUTED-1H-PYRAZOL-3-YL)SULFANYL]ACETIC ACID DERIVATIVES, SALTS THEREOF, AND USE THEREOF AS ACTIVE HERBICIDAL INGREDIENTS” (BAYER AKTIENGESELLSCHAFT, priority 2020, published 2023).

Assays:
Assay type in all cases: in vivo
[1] = test system: Alopecurus myosuroides; assay: Pre-emergence herbicidal effect against ALOMY; settings: 1280 g/ha, visual score after 3 weeks, 100% = plants have died, 0% = like control plants
How it was run: (§1)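 Pre-emergence soil-surface spray, WP/EC formulations in water at 600 to 800 L/ha plus 0.2% wetting agent, sandy loam, greenhouse, visual % damage vs untreated at 3 weeks (100% = plants dead, 0% = like control).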

[2] = test system: Digitaria sanguinalis; assay: Pre-emergence herbicidal effect against DIGSA; settings: 1280 g/ha, visual score after 3 weeks, 100% = plants have died, 0% = like control plants
How it was run: as §1

[3] = test system: Echinochloa crus-galli; assay: Pre-emergence herbicidal effect against ECHCG; settings: 1280 g/ha, visual score after 3 weeks, 100% = plants have died, 0% = like control plants
How it was run: as §1

[4] = test system: Poa annua; assay: Pre-emergence herbicidal effect against POAAN; settings: 1280 g/ha, visual score after 3 weeks, 100% = plants have died, 0% = like control plants
How it was run: as §1

[5] = test system: Setaria viridis; assay: Pre-emergence herbicidal effect against SETVI; settings: 1280 g/ha, visual score after 3 weeks, 100% = plants have died, 0% = like control plants
How it was run: as §1

[6] = test system: Abutylon threophrasti; assay: Pre-emergence herbicidal effect against ABUTH; settings: 1280 g/ha, visual score after 3 weeks, 100% = plants have died, 0% = like control plants
Source text: (§2) 1. Pre-emergence herbicidal effect and crop plant compatibility Seeds of monocotyledonous and dicotyledonous weed plants and crop plants are laid out in sandy loam soil in wood-fibre pots and covered with soil. The compounds of the invention, formulated in the form of wettable powders (WP) or as emulsion concentrates (EC), are then applied to the surface of the covering soil as aqueous suspension or emulsion at a water application rate equating to 600 to 800 L/ha with addition of 0.2% wetting agent. After the treatment, the pots are placed in a greenhouse and kept under good growth conditions for the trial plants. The damage to the test plants is scored visually after a test period of 3 weeks by comparison with untreated controls (herbicidal activity in percent (%): 100% activity=the plants have died, 0% activity=like control plants). [table]

[7] = test system: Bassia scoparia; assay: Pre-emergence herbicidal effect against KCHSC; settings: 1280 g/ha, visual score after 3 weeks, 100% = plants have died, 0% = like control plants
Source text: as §2

[8] = test system: Tripleurospermum inodorum; assay: Pre-emergence herbicidal effect against MATIN; settings: 1280 g/ha, visual score after 3 weeks, 100% = plants have died, 0% = like control plants
How it was run: as §1

[9] = test system: Stellaria media; assay: Pre-emergence herbicidal effect against STEME; settings: 1280 g/ha, visual score after 3 weeks, 100% = plants have died, 0% = like control plants
How it was run: as §1

[10] = test system: Veronica persica; assay: Pre-emergence herbicidal effect against VERPE; settings: 1280 g/ha, visual score after 3 weeks, 100% = plants have died, 0% = like control plants
How it was run: as §1

[11] = test system: Alopecurus myosuroides; assay: Post-emergence herbicidal effect against ALOMY; settings: 1280 g/ha, visual score after about 3 weeks, 100% = plants have died, 0% = like control plants
How it was run: (§3)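 Visual score, % action vs untreated controls (100% = plants dead, 0% = like controls), read ~3 wk after spraying. Greenhouse plants in sandy loam, one-leaf stage, 2–3 wk post-sowing. WP/EC as aqueous spray, 600–800 l/ha, 0.2% wetting agent.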

[12] = test system: Digitaria sanguinalis; assay: Post-emergence herbicidal effect against DIGSA; settings: 1280 g/ha, visual score after about 3 weeks, 100% = plants have died, 0% = like control plants
How it was run: as §3

[13] = test system: Poa annua; assay: Post-emergence herbicidal effect against POAAN; settings: 1280 g/ha, visual assessment about 3 weeks after treatment, 100% = plants have died, 0% = like control plants
How it was run: as §3

[14] = test system: Setaria viridis; assay: Post-emergence herbicidal effect against SETVI; settings: 1280 g/ha, visual assessment about 3 weeks after treatment, 100% = plants have died, 0% = like control plants
How it was run: as §3

[15] = test system: Abutylon threophrasti; assay: Post-emergence herbicidal effect against ABUTH; settings: 1280 g/ha, visual assessment about 3 weeks after treatment, 100% = plants have died, 0% = like control plants
How it was run: as §3

[16] = test system: Bassia scoparia; assay: Post-emergence herbicidal effect against KCHSC; settings: 1280 g/ha, visual assessment about 3 weeks after treatment, 100% = plants have died, 0% = like control plants
How it was run: as §3

[17] = test system: Tripleurospermum inodorum; assay: Post-emergence herbicidal effect against MATIN; settings: 1280 g/ha, visual assessment about 3 weeks after treatment, 100% = plants have died, 0% = like control plants
How it was run: as §3

[18] = test system: Stellaria media; assay: Post-emergence herbicidal effect against STEME; settings: 1280 g/ha, visual assessment about 3 weeks after treatment, 100% = plants have died, 0% = like control plants
How it was run: as §3

[19] = test system: Veronica persica; assay: Post-emergence herbicidal effect against VERPE; settings: 1280 g/ha, visual assessment about 3 weeks after treatment, 100% = plants have died, 0% = like control plants
How it was run: as §3

[20] = test system: Lolium rigidum; assay: Pre-emergence herbicidal effect against LOLRI; settings: 1280 g/ha, visual score after 3 weeks, 100% = plants have died, 0% = like control plants
How it was run: as §1

[21] = test system: Amaranthus retroflexus; assay: Pre-emergence herbicidal effect against AMARE; settings: 1280 g/ha, visual score after 3 weeks, 100% = plants have died, 0% = like control plants
Source text: as §2

[22] = test system: Echinochloa crus-galli; assay: Post-emergence herbicidal effect against ECHCG; settings: 1280 g/ha, visual score after about 3 weeks, 100% = plants have died, 0% = like control plants
How it was run: as §3

[23] = test system: Amaranthus retroflexus; assay: Post-emergence herbicidal effect against AMARE; settings: 1280 g/ha, visual assessment about 3 weeks after treatment, 100% = plants have died, 0% = like control plants
Method: [table] 2. Post-emergence herbicidal effect and crop plant compatibility Seeds of monocotyledonous and dicotyledonous weed and crop plants are laid out in sandy loam soil in wood-fibre pots, covered with soil and cultivated in a greenhouse under good growth conditions. 2 to 3 weeks after sowing, the test plants are treated at the one-leaf stage. The compounds of the invention, formulated in the form of wettable powders (WP) or as emulsion concentrates (EC), are then sprayed onto the green parts of the plants as aqueous suspension or emulsion at a water application rate equating to 600 to 800 l/ha with addition of 0.2% wetting agent. After the test plants have been left to stand in the greenhouse under optimal growth conditions for about 3 weeks, the action of the preparations is assessed visually in comparison to untreated controls (herbicidal action in percent (%): 100% activity=the plants have died, 0% activity=like control plants).

SMILES | Pre-emergence action against ALOMY [1] | Pre-emergence action against DIGSA [2] | Pre-emergence action against ECHCG [3] | Pre-emergence action against POAAN [4] | Pre-emergence action against SETVI [5] | Pre-emergence action against ABUTH [6] | Pre-emergence action against KCHSC [7] | Pre-emergence action against MATIN [8] | Pre-emergence action against STEME [9] | Pre-emergence action against VERPE [10] | Post-emergence action against ALOMY [11] | Post-emergence action against POAAN [13] | Post-emergence action against SETVI [14] | Post-emergence action against ABUTH [15] | Post-emergence action against KCHSC [16] | Post-emergence action against MATIN [17] | Post-emergence action against STEME [18] | Post-emergence action against VERPE [19] | Pre-emergence action against LOLRI [20] | Post-emergence action against ECHCG [22] | further results
CCOC(=O)CSc1nn(-c2ccc(F)cc2)c(-c2ccc(F)cc2)c1Br [Example I-019] | 90% | 100% | 100% | 100% | 100% | 90% | 100% | 100% | 90% | 100% | 100% | 100% | 90% | 100% | 100% | 100% | 90% | 100% | – | – | Post-emergence action against DIGSA [12]: 100%
CCOC(=O)C[S+]([O-])c1nn(-c2ccccc2F)c(-c2cncc(Cl)c2)c1Br (stereo not shown) [II-013] | 100% | 100% | 100% | 100% | 100% | 90% | 90% | 100% | 100% | 100% | – | 100% | 90% | 100% | 90% | 100% | 100% | 100% | 100% | 100% | Pre-emergence action against AMARE [21]: 100%; Post-emergence action against AMARE [23]: 90%
COC(=O)CN(C)C(=O)CSc1nn(-c2ccccc2F)c(-c2ccc(F)c(F)c2)c1Cl [VII-002] | – | – | 100% | – | 100% | – | 90% | – | 100% | 90% | – | 100% | 90% | – | – | 90% | 90% | 90% | – | – | –
COC(=O)CNC(=O)CSc1nn(-c2ccccc2F)c(-c2cccnc2)c1Br [VII-007] | 90% | – | 100% | 100% | 100% | – | 90% | 90% | 90% | 90% | 90% | 90% | 90% | 90% | 90% | 90% | 90% | 90% | – | 90% | –
COC(=O)CNC(=O)CSc1nn(-c2ccccc2F)c(-c2cncc(F)c2)c1Br [VII-009] | 90% | – | 90% | 100% | 100% | 90% | – | 100% | 100% | 100% | 90% | 100% | 90% | 90% | 90% | 90% | 100% | 90% | 100% | 90% | –
